{"source": "patent US10597388B2", "about": "“Pyridazinone herbicides” (FMC CORPORATION, priority 2014, dated 2020)", "test_in_all_cases": "Test D controlled growth environment herbicide test, pre- and postemergence", "assay_type_in_all_cases": "in vivo", "key": {"[1]": {"test_system": "radish, wild (wild radish, Raphanus raphanistrum)", "outline": "(§1)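 Rating is visual, 0–100 scale (100 = complete control), made against untreated plants 14–21 d after treatment in controlled growth conditions. Postemergence sprays went onto 1- to 4-leaf plants in peat medium; preemergence sprays onto silt loam after sowing; formulation included a surfactant.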"}, "[2]": {"test_system": "galium (catchweed bedstraw, Galium aparine)", "outline": "as §1"}, "[3]": {"test_system": "kochia (Kochia scoparia)", "outline": "as §1"}, "[4]": {"test_system": "bluegrass (annual bluegrass, Poa annua)", "outline": "as §1"}, "[5]": {"test_system": "mustard, wild (wild mustard, Sinapis arvensis)", "outline": "as §1"}, "[6]": {"test_system": "buckwheat, wild (wild buckwheat, Polygonum convolvulus)", "outline": "as §1"}, "[7]": {"test_system": "pigweed (Amaranthus retroflexus)", "outline": "as §1"}, "[8]": {"test_system": "speedwell (bird's-eye speedwell, Veronica persica)", "outline": "as §1"}, "[9]": {"test_system": "field violet (Viola arvensis)", "outline": "as §1"}, "[10]": {"test_system": "Russian thistle (Salsola kali)", "outline": "as §1"}, "[11]": {"test_system": "windgrass (Apera spica-venti)", "outline": "as §1"}, "[12]": {"test_system": "canarygrass (Phalaris minor)", "outline": "as §1"}, "[13]": {"test_system": "oilseed rape (Brassica napus)", "outline": "as §1"}, "[14]": {"settings": "Postemergence, 31 g ai/ha, scale 0 to 100 (0 no effect, 100 complete control)"}, "[15]": {"settings": "Postemergence, 125 g ai/ha, visual rating on scale 0 (no effect) to 100 (complete control), 14 to 21 d"}, "[16]": {"settings": "Postemergence, 250 g ai/ha, scale 0 to 100 (0 no effect, 100 complete control)"}, "[17]": {"settings": "Preemergence, 125 g ai/ha, scale 0 to 100 (0 no effect, 100 complete control)"}, "[18]": {"settings": "Preemergence, 250 g ai/ha, scale 0 to 100 (0 no effect, 100 complete control)"}, "[19]": {"settings": "postemergence, 62 g ai/ha, scale 0 to 100, 0 no effect, 100 complete control"}, "[20]": {"settings": "Preemergence, 62 g ai/ha, scale 0 to 100 (0 no effect, 100 complete control)"}}}
{"smiles": "CCC(=O)Oc1c(C)nn(C)c(=O)c1-c1c(C)sc2ccc(Cl)cc12", "note": "[Compound 109]", "values": [{"measurement": "Radish, Wild plant response rating", "setting": "[1]; [14]", "result": 75}, {"measurement": "Plant response rating, Radish, Wild", "setting": "[1]; [15]", "result": 90}, {"measurement": "Plant response rating, Radish, Wild", "setting": "[1]; [16]", "result": 100}, {"measurement": "Plant response rating (scale of 0 to 100), Radish, Wild", "setting": "[1]; Preemergence, 31 g ai/ha", "result": 25}, {"measurement": "Plant response rating (scale of 0 to 100), Radish, Wild", "setting": "[1]; Preemergence, 62 g ai/ha", "result": 75}, {"measurement": "Plant response rating, Radish, Wild", "setting": "[1]; [17]", "result": 90}, {"measurement": "Plant response rating, Radish, Wild", "setting": "[1]; [18]", "result": 95}, {"measurement": "Plant response rating, Radish, Wild", "setting": "[1]; [19]", "result": 75}, {"measurement": "Galium plant response rating", "setting": "[2]; [14]", "result": 100}, {"measurement": "Plant response rating, Galium", "setting": "[2]; [15]", "result": 100}, {"measurement": "Plant response rating, Galium", "setting": "[2]; [16]", "result": 100}, {"measurement": "Plant response rating (scale of 0 to 100), Galium", "setting": "[2]; Preemergence, 31 g ai/ha", "result": 40}, {"measurement": "Plant response rating (scale of 0 to 100), Galium", "setting": "[2]; Preemergence, 62 g ai/ha", "result": 75}, {"measurement": "Plant response rating, Galium", "setting": "[2]; [17]", "result": 100}, {"measurement": "Plant response rating, Galium", "setting": "[2]; [18]", "result": 100}, {"measurement": "Plant response rating, Galium", "setting": "[2]; [19]", "result": 100}, {"measurement": "Kochia plant response rating", "setting": "[3]; [14]", "result": 95}, {"measurement": "Plant response rating, Kochia", "setting": "[3]; [15]", "result": 100}, {"measurement": "Plant response rating, Kochia", "setting": "[3]; [16]", "result": 100}, {"measurement": "Plant response rating (scale of 0 to 100), Kochia", "setting": "[3]; Preemergence, 31 g ai/ha", "result": 20}, {"measurement": "Plant response rating (scale of 0 to 100), Kochia", "setting": "[3]; Preemergence, 62 g ai/ha", "result": 70}, {"measurement": "Plant response rating, Kochia", "setting": "[3]; [17]", "result": 80}, {"measurement": "Plant response rating, Kochia", "setting": "[3]; [18]", "result": 100}, {"measurement": "Plant response rating, Kochia", "setting": "[3]; [19]", "result": 100}, {"measurement": "Bluegrass plant response rating", "setting": "[4]; [14]", "result": 5}, {"measurement": "Plant response rating, Bluegrass", "setting": "[4]; [15]", "result": 25}, {"measurement": "Plant response rating, Bluegrass", "setting": "[4]; [16]", "result": 45}, {"measurement": "Plant response rating (scale of 0 to 100), Bluegrass", "setting": "[4]; Preemergence, 31 g ai/ha", "result": 10}, {"measurement": "Plant response rating, Bluegrass", "setting": "[4]; [20]", "result": 20}, {"measurement": "Plant response rating, Bluegrass", "setting": "[4]; [17]", "result": 30}, {"measurement": "Plant response rating, Bluegrass", "setting": "[4]; [18]", "result": 60}, {"measurement": "Plant response rating, Bluegrass", "setting": "[4]; [19]", "result": 15}, {"measurement": "Mustard, Wild plant response rating", "setting": "[5]; [14]", "result": 60}, {"measurement": "Plant response rating, Mustard, Wild", "setting": "[5]; [15]", "result": 90}, {"measurement": "Plant response rating, Mustard, Wild", "setting": "[5]; [16]", "result": 100}, {"measurement": "Plant response rating (scale of 0 to 100), Mustard, Wild", "setting": "[5]; Preemergence, 31 g ai/ha", "result": 5}, {"measurement": "Plant response rating (scale of 0 to 100), Mustard, Wild", "setting": "[5]; Preemergence, 62 g ai/ha", "result": 75}, {"measurement": "Plant response rating, Mustard, Wild", "setting": "[5]; [17]", "result": 100}, {"measurement": "Plant response rating, Mustard, Wild", "setting": "[5]; [18]", "result": 100}, {"measurement": "Plant response rating, Mustard, Wild", "setting": "[5]; [19]", "result": 85}, {"measurement": "Buckwheat, Wild plant response rating", "setting": "[6]; [14]", "result": 95}, {"measurement": "Plant response rating, Buckwheat, Wild", "setting": "[6]; [15]", "result": 100}, {"measurement": "Plant response rating, Buckwheat, Wild", "setting": "[6]; [16]", "result": 100}, {"measurement": "Plant response rating (scale of 0 to 100), Buckwheat, Wild", "setting": "[6]; Preemergence, 31 g ai/ha", "result": 0}, {"measurement": "Plant response rating, Buckwheat, Wild", "setting": "[6]; [20]", "result": 20}, {"measurement": "Plant response rating, Buckwheat, Wild", "setting": "[6]; [17]", "result": 30}, {"measurement": "Plant response rating, Buckwheat, Wild", "setting": "[6]; [18]", "result": 75}, {"measurement": "Plant response rating, Buckwheat, Wild", "setting": "[6]; [19]", "result": 95}, {"measurement": "Pigweed plant response rating", "setting": "[7]; [14]", "result": 85}, {"measurement": "Plant response rating, Pigweed", "setting": "[7]; [15]", "result": 100}, {"measurement": "Plant response rating, Pigweed", "setting": "[7]; [16]", "result": 100}, {"measurement": "Plant response rating (scale of 0 to 100), Pigweed", "setting": "[7]; Preemergence, 31 g ai/ha", "result": 100}, {"measurement": "Plant response rating (scale of 0 to 100), Pigweed", "setting": "[7]; Preemergence, 62 g ai/ha", "result": 100}, {"measurement": "Plant response rating, Pigweed", "setting": "[7]; [17]", "result": 100}, {"measurement": "Plant response rating, Pigweed", "setting": "[7]; [18]", "result": 100}, {"measurement": "Plant response rating, Pigweed", "setting": "[7]; [19]", "result": 85}, {"measurement": "Speedwell plant response rating", "setting": "[8]; [14]", "result": 50}, {"measurement": "Plant response rating, Speedwell", "setting": "[8]; [15]", "result": 75}, {"measurement": "Plant response rating, Speedwell", "setting": "[8]; [16]", "result": 100}, {"measurement": "Plant response rating, Speedwell", "setting": "[8]; [19]", "result": 60}, {"measurement": "Field Violet plant response rating", "setting": "[9]; [14]", "result": 90}, {"measurement": "Plant response rating, Field Violet", "setting": "[9]; [15]", "result": 100}, {"measurement": "Plant response rating, Field Violet", "setting": "[9]; [16]", "result": 100}, {"measurement": "Plant response rating (scale of 0 to 100), Field Violet", "setting": "[9]; Preemergence, 31 g ai/ha", "result": 85}, {"measurement": "Plant response rating (scale of 0 to 100), Field Violet", "setting": "[9]; Preemergence, 62 g ai/ha", "result": 100}, {"measurement": "Plant response rating, Field Violet", "setting": "[9]; [17]", "result": 100}, {"measurement": "Plant response rating, Field Violet", "setting": "[9]; [18]", "result": 100}, {"measurement": "Plant response rating, Field Violet", "setting": "[9]; [19]", "result": 95}, {"measurement": "Russian Thistle plant response rating", "setting": "[10]; [14]", "result": 60}, {"measurement": "Plant response rating, Russian Thistle", "setting": "[10]; [15]", "result": 75}, {"measurement": "Plant response rating, Russian Thistle", "setting": "[10]; [16]", "result": 90}, {"measurement": "Plant response rating (scale of 0 to 100), Russian Thistle", "setting": "[10]; Preemergence, 31 g ai/ha", "result": 0}, {"measurement": "Plant response rating (scale of 0 to 100), Russian Thistle", "setting": "[10]; Preemergence, 62 g ai/ha", "result": 20}, {"measurement": "Plant response rating, Russian Thistle", "setting": "[10]; [17]", "result": 35}, {"measurement": "Plant response rating, Russian Thistle", "setting": "[10]; [18]", "result": 50}, {"measurement": "Plant response rating, Russian Thistle", "setting": "[10]; [19]", "result": 75}, {"measurement": "Windgrass plant response rating", "setting": "[11]; [14]", "result": 60}, {"measurement": "Plant response rating, Windgrass", "setting": "[11]; [15]", "result": 80}, {"measurement": "Plant response rating, Windgrass", "setting": "[11]; [16]", "result": 90}, {"measurement": "Plant response rating (scale of 0 to 100), Windgrass", "setting": "[11]; Preemergence, 31 g ai/ha", "result": 55}, {"measurement": "Plant response rating (scale of 0 to 100), Windgrass", "setting": "[11]; Preemergence, 62 g ai/ha", "result": 60}, {"measurement": "Plant response rating, Windgrass", "setting": "[11]; [17]", "result": 80}, {"measurement": "Plant response rating, Windgrass", "setting": "[11]; [18]", "result": 100}, {"measurement": "Plant response rating, Windgrass", "setting": "[11]; [19]", "result": 65}, {"measurement": "Canarygrass plant response rating", "setting": "[12]; [14]", "result": 40}, {"measurement": "Plant response rating, Canarygrass", "setting": "[12]; [15]", "result": 80}, {"measurement": "Plant response rating, Canarygrass", "setting": "[12]; [16]", "result": 90}, {"measurement": "Plant response rating (scale of 0 to 100), Canarygrass", "setting": "[12]; Preemergence, 31 g ai/ha", "result": 35}, {"measurement": "Plant response rating (scale of 0 to 100), Canarygrass", "setting": "[12]; Preemergence, 62 g ai/ha", "result": 75}, {"measurement": "Plant response rating, Canarygrass", "setting": "[12]; [17]", "result": 90}, {"measurement": "Plant response rating, Canarygrass", "setting": "[12]; [18]", "result": 98}, {"measurement": "Plant response rating, Canarygrass", "setting": "[12]; [19]", "result": 55}, {"measurement": "Oilseed Rape plant response rating", "setting": "[13]; [14]", "result": 65}, {"measurement": "Plant response rating, Oilseed Rape", "setting": "[13]; [15]", "result": 75}, {"measurement": "Plant response rating, Oilseed Rape", "setting": "[13]; [16]", "result": 85}, {"measurement": "Plant response rating (scale of 0 to 100), Oilseed Rape", "setting": "[13]; Preemergence, 31 g ai/ha", "result": 15}, {"measurement": "Plant response rating (scale of 0 to 100), Oilseed Rape", "setting": "[13]; Preemergence, 62 g ai/ha", "result": 40}, {"measurement": "Plant response rating, Oilseed Rape", "setting": "[13]; [17]", "result": 75}, {"measurement": "Plant response rating, Oilseed Rape", "setting": "[13]; [18]", "result": 85}, {"measurement": "Plant response rating, Oilseed Rape", "setting": "[13]; [19]", "result": 70}]}
